The values that follow come from patent publication US5530126A, “Process for the preparation of substituted 6-(pyrazol-3yl)-1,4-benzoxazin-3-ones” (Monsanto Company, priority 1994, dated 1996).

Molecules are shown by their SMILES.

What all share (type): in vivo
Assay [1] relates to Velvetleaf. As to the kind of experiment: Post-emergence herbicide test. The settings on record: Abutilon theophrasti, read-out: % plant inhibition (Vele); for inhibition at 1120 g/ha: 1.12 kg/ha. An outline of the steps:
(§1)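 Scoring: percent inhibition relative to control, usually 11 days post-treatment, with a later look near 25 days in some instances. Plants had been grown in greenhouse pans for two to three weeks before atomizer spraying at 1870 L/Ha.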

Assay [2] deals with Yellow nutsedge. Nature of the assay: Post-emergence herbicide test. Conditions: Cyperus, read-out: % plant inhibition (Yens); for inhibition at 1120 g/ha: 1.12 kg/ha. An outline of the steps:
as §1

Assay [3] deals with Cocklebur. As to the kind of experiment: Post-emergence herbicide test. Conditions: Xanthium strumarium, read-out: % plant inhibition (Cobu); for inhibition at 1120 g/ha: 1.12 kg/ha. The essentials:
as §1

Assay [4] concerns Indian Mustard. Nature of the assay: Post-emergence herbicide test. The settings on record: Brassica juncea, read-out: % plant inhibition (Inmu); for inhibition at 1120 g/ha: 1.12 kg/ha. The essentials: as §1
For assay [5], the system named is Annual bluegrass. As to the kind of experiment: Post-emergence herbicide test. The settings on record: read-out: % plant inhibition (Anbg); for inhibition at 1120 g/ha: 1.12 kg/ha. An outline of the steps: as §1
For assay [6], the system named is Downy Brome. Nature of the assay: Post-emergence herbicide test. The settings on record: Bromus tectorum, read-out: % plant inhibition (Dobr); for inhibition at 1120 g/ha: 1.12 kg/ha. The essentials: as §1
Assay [7] relates to Morningglory. As to the kind of experiment: Post-emergence herbicide test. The settings on record: Ipomoea, read-out: % plant inhibition (Mogl); for inhibition at 1120 g/ha: 1.12 kg/ha. The essentials:
as §1

The subject of assay [8] is Seedling johnsongrass. As to the kind of experiment: Post-emergence herbicide test. Conditions: Sorghum halepense, read-out: % plant inhibition (Sejg); for inhibition at 1120 g/ha: 1.12 kg/ha. An outline of the steps:
as §1

For assay [9], the system named is Barnyardgrass. As to the kind of experiment: Post-emergence herbicide test. Conditions: Echinochloa crus-galli, read-out: % plant inhibition (Bygr); for inhibition at 1120 g/ha: 1.12 kg/ha. An outline of the steps: as §1
In assay [10] the test system is Wild buckwheat. Nature of the assay: Post-emergence herbicide test. The settings on record: Fallopia convolvulus, read-out: % plant inhibition (Wibw); for inhibition at 1120 g/ha: 1.12 kg/ha. An outline of the steps:
as §1

Assay [11] has as its system Velvetleaf. As to the kind of experiment: Pre-emergence herbicide test. Conditions: Abutilon theophrasti, read-out: % plant inhibition (Vele); for inhibition at 1120 g/ha: 1.12 kg/ha. The essentials:
(§2)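 Readout: % inhibition per species, observed ~10-14 d after seeding and treatment. Treatment: known amount of active in acetone or water onto seed bed, covered with untreated soil; greenhouse, watered from below.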

The test system of assay [12] is Yellow nutsedge. Nature of the assay: Pre-emergence herbicide test. Conditions: Cyperus, read-out: % plant inhibition (Yens); for inhibition at 1120 g/ha: 1.12 kg/ha. The essentials:
as §2

The subject of assay [13] is Cocklebur. As to the kind of experiment: Pre-emergence herbicide test. Conditions: Xanthium strumarium, read-out: % plant inhibition (Cobu); for inhibition at 1120 g/ha: 1.12 kg/ha. The essentials:
as §2

Assay [14] concerns Indian Mustard. Nature of the assay: Pre-emergence herbicide test. Conditions: Brassica juncea, read-out: % plant inhibition (Inmu); for inhibition at 1120 g/ha: 1.12 kg/ha. An outline of the steps:
as §2

For assay [15], the system named is Annual bluegrass. As to the kind of experiment: Pre-emergence herbicide test. The settings on record: read-out: % plant inhibition (Anbg); for inhibition at 1120 g/ha: 1.12 kg/ha. An outline of the steps:
as §2

Assay [16] concerns Downy Brome. Nature of the assay: Pre-emergence herbicide test. Conditions: Bromus tectorum, read-out: % plant inhibition (Dobr); for inhibition at 1120 g/ha: 1.12 kg/ha. An outline of the steps:
as §2

In assay [17] the test system is Morningglory. As to the kind of experiment: Pre-emergence herbicide test. Conditions: Ipomoea, read-out: % plant inhibition (Mogl); for inhibition at 1120 g/ha: 1.12 kg/ha. An outline of the steps:
as §2

The subject of assay [18] is Seedling johnsongrass. As to the kind of experiment: Pre-emergence herbicide test. Conditions: Sorghum halepense, read-out: % plant inhibition (Sejg); for inhibition at 1120 g/ha: 1.12 kg/ha. An outline of the steps: as §2
The test system of assay [19] is Barnyardgrass. Nature of the assay: Pre-emergence herbicide test. The settings on record: Echinochloa crus-galli, read-out: % plant inhibition (Bygr); for inhibition at 1120 g/ha: 1.12 kg/ha. An outline of the steps:
as §2

Assay [20] concerns Wild buckwheat. As to the kind of experiment: Pre-emergence herbicide test. Conditions: Fallopia convolvulus, read-out: % plant inhibition (Wibw); for inhibition at 1120 g/ha: 1.12 kg/ha. The essentials:
as §2

On to `Cn1nc(-c2cc(C3OCCO3)c(Cl)cc2F)c(Cl)c1C(F)(F)F` [Compound 100, 4-chloro-3-(4-chloro-5-(1,3-dioxolan-2-yl)-2-fluorophenyl)-1-methyl-5-(trifluoromethyl)-1H-pyrazole], for which the inhibition at 1120 g/ha in assay [1] came to 100%; in assay [2] it was 20%; in [3], 80%; in assay [4] it was 80%; in assay [5], 100%; in assay [6] it was 100%. Also, the inhibition at 1120 g/ha was found to be 100% in [7]; 100% in [8]; 100% in [9]; 100% in [10]; 100% in [11]; 0% in [12]. For the same compound, the inhibition at 1120 g/ha is 20% in [13]; 100% in assay [14]; 90% in assay [15]; 100% in [16]; 80% in assay [17]; 90% in [18]. Moreover, the inhibition at 1120 g/ha in assay [19] was 70%; in assay [20] it was 100%.
As for `Cn1nc(-c2cc(Oc3ccc(C(F)(F)F)cc3)c(Cl)cc2F)c(Cl)c1C(F)(F)F` [Compound 205], the inhibition at 11210 g/ha amounted to 100% in [1] (11.21 kg/ha); 0% in [2] (11.21 kg/ha); 60% in [3] (11.21 kg/ha); 60% in assay [4] (11.21 kg/ha); 40% in [5] (11.21 kg/ha); 50% in assay [6] (11.21 kg/ha). Besides, the inhibition at 11210 g/ha was 80% in assay [7] (11.21 kg/ha); 70% in [8] (11.21 kg/ha); 10% in assay [9] (11.21 kg/ha); 90% in assay [10] (11.21 kg/ha); 10% in assay [11] (11.21 kg/ha); 0% in assay [12] (11.21 kg/ha). Also, the inhibition at 11210 g/ha turned out to be 0% in assay [13] (11.21 kg/ha); 30% in assay [14] (11.21 kg/ha); 0% in assay [15] (11.21 kg/ha); 0% in assay [16] (11.21 kg/ha); 0% in assay [17] (11.21 kg/ha); 20% in assay [18] (11.21 kg/ha). The inhibition at 11210 g/ha in assay [19] (11.21 kg/ha) was 0%; in assay [20] (11.21 kg/ha), 10%.
For `Cn1nc(-c2cc(CC#N)c(Cl)cc2F)c(Cl)c1C(F)(F)F` [Compound 115], the inhibition at 1120 g/ha in [1] was found to be 100%; in assay [2] it was 20%; in assay [3], 60%; in [4] it was 60%; in assay [5] it was 40%; in assay [6], 20%. Moreover, the inhibition at 1120 g/ha was 60% in [7]; 40% in assay [8]; 80% in [9]; 100% in [10]; 100% in assay [11]; 0% in assay [12]. Moreover, the inhibition at 1120 g/ha in [13] was found to be 20%; in [14], 100%; in assay [15], 40%; in [16] it was 70%; in assay [17], 80%; in [18], 70%. For the same compound, the figures for the inhibition at 1120 g/ha in [19] and in [20] were 80% and 90%, respectively.

The inhibition is the change of the read-out against control, counted positive when it falls.
